{"source": "patent US11058672B2", "about": "“Pharmaceutical compositions and methods for producing low impurity concentrations of the same” (Chiesi Farmaceutici S.p.A., priority 2008, dated 2021)", "origin": "cited, not measured here"}
{"smiles": "CCCC(=O)OCOC(=O)C1=C(C)NC(C)=C(C(=O)OC)C1c1cccc(Cl)c1Cl", "note": "(stereo not shown) [Clevidipine, butyroxymethyl methyl 4-(2′,3′-dichlorophenyl)-1,4-dihydro-2,6-dimethyl-3,5-pyridinedicarboxylate]", "values": [{"measurement": "solubility in water", "result": "practically insoluble"}]}
